≈ marks a conversion by molar mass, not a printed value.
Tests used:
P388 [1] = assay: In vitro concentration to inhibit the growth of P-388 leukemia cells; assay type: functional, cell-based; conditions: Mus musculus
[2] = The dissociation constant of the free compound in 1: 1 dioxane-water mixture.; assay type: ADME
P388 [3] = assay: Compound concentration was evaluated in vitro to inhibit the growth of P-388 leukemia cells; assay type: functional; conditions: Mus musculus, read-out: ID50 (the source's name)
[4] = The dissociation constant at pH 3 using potentiometric titration in 100 uM of compound in 0.15 M KCl at 25 degrees Centigrade; assay type: ADME; conditions: 0.15 M KCl solution
[5] = The dissociation constant at pH 8 using potentiometric titration in 100 uM of compound in 0.15 M KCl at 25 degree Centigrade; assay type: ADME; conditions: 0.15 M KCl solution

Row | pKa [2] | IC50 (P388 [3]) [µg/mL] | pKa at 100 µM [4] | pKa at 100 µM [5] | Compound | ID50 (P388 [1]) [µg/mL]
1 | – | – | – | – | 5-Amino-6-(7-amino-6-methoxy-5,8-dioxo-5,8-dihydro-quinolin-2-yl)-4-(2-hydroxy-3,4-dimethoxy-phenyl)-3-methyl-pyridine-2-carboxylic acid; compound with Gold | 0.05
2 | 6.5 | 0.05 (≈ 0.0987 µM) | 4.7 | 6.6 | COC1=C(N)C(=O)c2nc(-c3nc(C(=O)O)c(C)c(-c4ccc(OC)c(OC)c4O)c3N)ccc2C1=O [STREPTONIGRIN] | –

Source: ChEMBL document CHEMBL1124601, “Bifunctional antitumor compounds: synthesis and characterization of a Au(III)-streptonigrin complex with thiol-modulating properties” (J Med Chem, 1989)
